From publication PMC8878464, “Fenchone Derivatives as a Novel Class of CB2 Selective Ligands: Design, Synthesis, X-ray Structure and Therapeutic Potential” (Molecules, 2022)
Where “and” joins values, the source holds several entries; their conditions need not be identical. Equal entries are not always repeated. Entries after “also recorded” stand apart in the source; their conditions may differ. Where two headings read alike, the source gives them in different places.

Columns and labels:
human CB1R (hCB1R) = biological target: T1, human CB1R (hCB1R) (Homo sapiens, UniProt P21554); assay: [3H]CP-55,940 competition displacement binding assay, hCB1R membranes
T1 construct: purchased Charles River A317
T1 sequence (P21554 whole entry): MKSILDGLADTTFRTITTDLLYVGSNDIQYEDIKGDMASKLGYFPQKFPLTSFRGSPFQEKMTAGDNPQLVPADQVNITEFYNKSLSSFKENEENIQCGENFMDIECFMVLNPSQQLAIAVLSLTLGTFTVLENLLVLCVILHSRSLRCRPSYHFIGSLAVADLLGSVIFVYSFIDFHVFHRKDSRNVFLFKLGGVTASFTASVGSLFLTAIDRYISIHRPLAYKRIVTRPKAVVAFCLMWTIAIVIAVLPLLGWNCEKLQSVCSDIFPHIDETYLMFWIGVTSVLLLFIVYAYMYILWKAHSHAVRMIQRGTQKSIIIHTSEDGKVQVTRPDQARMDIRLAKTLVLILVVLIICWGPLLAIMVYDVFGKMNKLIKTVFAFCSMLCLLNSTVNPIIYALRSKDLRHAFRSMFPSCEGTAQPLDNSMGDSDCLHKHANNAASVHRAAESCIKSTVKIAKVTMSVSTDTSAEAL
Method: (§1) The compounds were further characterized using a radioligand binding assay to determine their affinities for CB1R and CB2R based on each test compound’s ability to displace the radiolabeled CB1R/CB2R agonist CP-55,940 from membranes of cells expressing the human CB1R and CB2R [24].
(§2) Membranes from cells expressing hCB1R and hCB2R were purchased from Charles River, (Cat#A317 and A318, respectively; OH, USA). Solutions of test compounds ranging from 0.1 nM to 10 mM were prepared in DMSO. The desired amount of membrane preparation was diluted with ice-cold assay buffer (50 mM Tris-HCl, 2.5 mM EDTA, 5 mM MgCl2, 0.1% BSA, pH 7.4) and was vortexed. […] The assays were incubated for 90 min at 30 °C and then immediately filtered on WHATMAN GF/B Filter Paper (Fired) using a Brandel M-24R Harvester followed by six washes with ice cold wash buffer (50 mM Tris-HCl, 2.5 mM EDTA, 5 mM MgCl2, 0.1% BSA, pH 7.4). Radioactivity was detected by adding the Filter Paper directly to the ULTIMA GOLD scintillation cocktail (PerkinElmer, Waltham, MA, USA), incubation at 20 °C for 60 min and then counted using a Tri-Carb 4910TR liquid scintillation counter (PerkinElmer, Waltham, MA, USA).

human CB2R (hCB2R) = human CB2R (hCB2R) (Homo sapiens, UniProt P34972); assay: [3H]CP-55,940 competition displacement binding assay, hCB2R membranes
human CB2R (hCB2R), sequence (P34972 whole entry): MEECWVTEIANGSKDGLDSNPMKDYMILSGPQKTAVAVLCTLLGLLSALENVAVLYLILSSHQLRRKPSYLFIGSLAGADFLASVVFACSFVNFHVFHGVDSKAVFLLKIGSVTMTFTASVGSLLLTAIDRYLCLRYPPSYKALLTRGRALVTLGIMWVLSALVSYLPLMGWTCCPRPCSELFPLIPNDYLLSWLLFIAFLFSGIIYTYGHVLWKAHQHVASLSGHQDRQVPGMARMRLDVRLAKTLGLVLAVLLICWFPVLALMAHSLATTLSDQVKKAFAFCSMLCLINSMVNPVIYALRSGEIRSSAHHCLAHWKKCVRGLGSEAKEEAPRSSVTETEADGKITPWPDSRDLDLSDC
Method: as §1, §2
Each curve represents the mean of three experiments performed in triplicate.

hCB2R = biological target: T2, hCB2R (Homo sapiens, UniProt P34972); assay: [35S]GTPγS binding assay at hCB2R; format: biochemical; conditions: for functional activity at hCB2R (agonist / antagonist / inverse agonist): [35S]GTPγS binding; for EC50: increase in [35S]GTPγS binding to hCB2R, two independent experiments in triplicate
T2 construct: purchased Charles River A318; host or cells: CHO-K1 cells
T2 sequence (P34972 whole entry): as above
Method: The method used for measuring agonist-stimulated binding of [^35S]GTPγS was based on a described protocol. Membranes (5 μg protein) were incubated in GTPγS assay buffer (50 mM Tris HCl (pH 7.4), 0.2 mM EGTA, 9 mM MgCl2, 150 mM NaCl, 1 mg/mL BSA) containing 100 μM GDP, 0.05 nM [^35S]GTPγS and test compounds at various concentrations. Vacuum filtration was used to separate bound ligand from free ligand. We used 10 μM GTPS to determine nonspecific binding. Basal binding was assayed in the absence of the ligand and in the presence of GDP.
Each symbol represents the mean percentage increase in [^35S]GTPγS binding ± SE.

[1] = tested on: zymosan-induced paw inflammation; assay: Zymosan-induced hind paw swelling (oedema) in mice; format: in vivo; conditions: 6 h after 60 μg zymosan paw injection
TNF-α = assay: Serum TNF-α (ELISA) after zymosan injection in mice; format: in vivo; conditions: 24 h after zymosan
Method: Control mice were injected with vehicle.
A mouse TNFα ELISA kit was used according to the manufacturer’s instructions (R&D Systems, Minneapolis, MN, USA).

[2] = tested on: zymosan-induced hyperalgesia; assay: von Frey monofilament pain assay in zymosan-injected mice; format: in vivo; conditions: 15 and 25 mg/kg ip, after 6 h, p < 0.01
Method: We injected 40 μL of 1.5% (w/v) zymosan A in 0.9% saline into the right hind paw of the mice to induce inflammation. […] Control mice were injected with vehicle. Paw swelling and pain perception were measured after 2, 6 and 24 h.

[3] = displacement of [3H]CP-55,940, membranes of CHO-K1 cells expressing human CB2R, read-out: Ki (nM) hCB2R
[4] = maximal effect as percentage of HU-308 response at 1 µM

CCCCCCc1ccc(OC)c(C2(O)C3(C)CCC(C3)C2(C)C)c1OC (stereo not shown) [Compound 2a, 2-(3′-Hexyl-2′,6′-dimethoxyphenyl)-1,3,3-trimethylbicyclo[2.2.1]heptan-2-ol]
Ki (human CB1R (hCB1R); read-out: Ki (nM) hCB1R): > 10000 nM
Ki (human CB2R (hCB2R); [3]): 224 nM and 223 nM

CCCCCc1cc(OC)c(C2(O)C3(C)CCC(C3)C2(C)C)c(OC)c1 (stereo not shown) [Compound 1a, 2-(2′,6′-Dimethoxy-4′-pentylphenyl)-1,3,3-trimethylbicyclo[2.2.1]heptan-2-ol]
Ki (human CB1R (hCB1R); read-out: Ki (nM) hCB1R): > 10000 nM
inhibition of [3H]CP-55,940 binding to hCB1R (human CB1R (hCB1R); result in words): no measurable inhibition
Ki (human CB2R (hCB2R); [3]): 47.7 nM

CCCc1ccc(OC)c(C2(O)C3(C)CCC(C3)C2(C)C)c1 (stereo not shown) [Compound 3b, 2-(2′-Methoxy-5′-propylphenyl)-1,3,3-trimethylbicyclo[2.2.1]heptan-2-ol]
Ki (human CB2R (hCB2R); [3]): 610 nM

CCCCCCCCc1ccc(OC)c(C2(O)C3(C)CCC(C3)C2(C)C)c1 (stereo not shown) [Compound 3h, 2-(2′-Methoxy-5′-octylphenyl)-1,3,3-trimethylbicyclo[2.2.1]heptan-2-ol]
Ki (human CB1R (hCB1R); read-out: Ki (nM) hCB1R): > 10000 nM

CCCCCc1cc(OC)c(C2(O)C3(C)CCC(C3)C2(C)C)c(OC)c1F (stereo not shown) [Compound 4b, 2-(3′-Fluoro-2′,6′-dimethoxy-4′-pentylphenyl)-1,3,3-trimethylbicyclo[2.2.1]heptan-2-ol]
Ki (human CB2R (hCB2R); [3]): 28.3 nM
functional activity at hCB2R (agonist / antagonist / inverse agonist) (hCB2R): agonist
EC50 (hCB2R): 305 nM
E(max)% (hCB2R; [4]): 54.2%

CCCCCc1cc(O)c(C2(O)C3(C)CCC(C3)C2(C)C)c(OC)c1 (stereo not shown) [Compound 5b, 2-(2′-hydroxy-6′-methoxy-4′-pentylphenyl)-1,3,3-trimethylbicyclo[2.2.1]heptan-2-ol]
Ki (human CB2R (hCB2R); [3]): 36.5 nM
E(max)% (hCB2R): 69.5%
functional activity at hCB2R (agonist / antagonist / inverse agonist) (hCB2R): agonist
EC50 (hCB2R): 82.8 nM

CCC(C)(C)c1ccc(OC)c(C2(O)C3(C)CCC(C3)C2(C)C)c1 (stereo not shown) [Compound 3f, 2-(2′-Methoxy-5′-(tert-pentyl)phenyl)-1,3,3-trimethylbicyclo[2.2.1] heptan-2-ol]
Ki (human CB2R (hCB2R); [3]): 1450 nM

CCCCCCC(C)(C)c1cc(OC)c([C@@H]2C=C(CO)[C@@H]3C[C@H]2C3(C)C)c(OC)c1 [HU-308, reference compound]
Ki (human CB1R (hCB1R)): > 10000 nM
functional activity at hCB2R (agonist / antagonist / inverse agonist) (hCB2R): agonist
E(max)% (hCB2R; [4]): 100%
reduction in swelling ([1]; 25 mg/kg ip): 20%
inhibition of TNF-α serum levels (TNF-α; 25 mg/kg ip): 28%

CCCCCc1ccc(OC)c(C2(O)C3(C)CCC(C3)C2(C)C)c1 (stereo not shown) [Compound 3c, 2-(2′-Methoxy-5′-pentylphenyl)-1,3,3-trimethylbicyclo[2.2.1]heptan-2-ol]
Ki (human CB1R (hCB1R); read-out: Ki (nM) hCB1R): > 10000 nM
Ki (human CB2R (hCB2R); [3]): 444 nM

COc1cc(C)cc(OC)c1C1(O)C2(C)CCC(C2)C1(C)C (stereo not shown) [Compound 1f, 2-(2′,6′-Dimethoxy-4′-methylphenyl)-1,3,3-trimethylbicyclo[2.2.1]heptan-2-ol]
Ki (human CB2R (hCB2R); [3]): 233 nM

COc1cc(C)cc(OC)c1C1(O)C2(C)CCC(C2)C1(C)C (stereo not shown) [Compound 1e, 2-(2′,6′-Dimethoxy-4′-methylphenyl)-1,3,3-trimethylbicyclo[2.2.1]heptan-2-ol]
Ki (human CB1R (hCB1R); read-out: Ki (nM) hCB1R): > 10000 nM
Ki (human CB2R (hCB2R); displacement of [3H]CP-55,940, value given in µM, read-out: Ki (nM) hCB2R): > 10000 nM

CCCCCc1cc(OC)c(C2(O)C3(C)CCC(C3)C2(C)C)c(OC)c1 (stereo not shown) [Compound 1b, 2-(2′,6′-Dimethoxy-4′-pentylphenyl)-1,3,3-trimethylbicyclo[2.2.1]heptan-2-ol]
Ki (human CB2R (hCB2R); [3]): 14.4 nM
E(max)% (hCB2R): 65.1%
functional activity at hCB2R (agonist / antagonist / inverse agonist) (hCB2R): agonist
EC50 (hCB2R): 11.6 nM
reduction in swelling ([1]; 25 mg/kg ip): 54%
inhibition of TNF-α serum levels (TNF-α; 25 mg/kg ip): 39%

2-(2′-Methoxy-5′-octylphenyl)-1,3,3-trimethylbicyclo[2.2.1]heptan-2-ol [Compound 3g]
Ki (human CB1R (hCB1R); displacement of [3H]CP-55,940, class word NB, read-out: Ki (nM) hCB1R): > 10000 nM

CCCCCCC(C)(C)c1cc(O)c(C2(O)C3(C)CCC(C3)C2(C)C)c(OC)c1 (stereo not shown) [Compound 5d, 2-(2′-Hydroxy-6′-methoxy-4′-(2″-methyloctan-2″-yl)phenyl)-1,3,3-trimethylbicyclo-[2.2.1]heptan-2-ol]
Ki (human CB2R (hCB2R); Ki (nM) hCB2R): 24.6 nM and 24.5 nM
functional activity at hCB2R (agonist / antagonist / inverse agonist) (hCB2R): agonist
EC50 (hCB2R): 14.8 nM
E(max)% (hCB2R; [4]): 105%

CCCCCCc1ccc(OC)c(C2(O)C3(C)CCC(C3)C2(C)C)c1OC (stereo not shown) [Compound 2b, 2-(3′-Hexyl-2′,6′-dimethoxyphenyl)-1,3,3-trimethylbicyclo[2.2.1]heptan-2-ol]
Ki (human CB2R (hCB2R); [3]): 73.4 nM
E(max)% (hCB2R): 46.2%
functional activity at hCB2R (agonist / antagonist / inverse agonist) (hCB2R): weakly stimulated; also recorded: agonist
EC50 (hCB2R): 1940 nM

CCCCCc1cc(OC)c(C2(O)C3(C)CCC(C3)C2(C)C)c(OC)c1F (stereo not shown) [Compound 4a, 2-(3′-Fluoro-2′,6′-dimethoxy-4′-pentylphenyl)-1,3,3-trimethylbicyclo[2.2.1]heptan-2-ol]
Ki (human CB1R (hCB1R); read-out: Ki (nM) hCB1R): > 10000 nM
Ki (human CB2R (hCB2R); [3]): 155 nM

CCCc1ccc(OC)c(C2(O)C3(C)CCC(C3)C2(C)C)c1 (stereo not shown) [Compound 3a, 2-(2′-Methoxy-5′-propylphenyl)-1,3,3-trimethylbicyclo[2.2.1]heptan-2-ol]
Ki (human CB1R (hCB1R); read-out: Ki (nM) hCB1R): > 10000 nM
Ki (human CB2R (hCB2R); [3]): 1010 nM

CCCCCCC(C)(C)c1cc(OC)c(C2(O)C3(C)CCC(C3)C2(C)C)c(OC)c1 (stereo not shown) [Compound 1c, 2-(2′,6′-Dimethoxy-4′-(2″-methyloctan-2″-yl)phenyl)-1,3,3-trimethylbicyclo[2.2.1]heptan-2-ol]
Ki (human CB1R (hCB1R); read-out: Ki (nM) hCB1R): > 10000 nM
Ki (human CB2R (hCB2R); [3]): 56.8 nM
functional activity at hCB2R (agonist / antagonist / inverse agonist) (hCB2R): agonist
EC50 (hCB2R): 121 nM

CCCCCCC(C)(C)c1cc(OC)c(C2(O)C3(C)CCC(C3)C2(C)C)c(OC)c1F (stereo not shown) [Compound 4c, 2-(3′-fluoro-2′,6′-dimethoxy-4′-(2″-methyloctan-2″-yl)phenyl)-1,3,3-trimethylbicyclo[2.2.1]heptan-2-ol]
Ki (human CB1R (hCB1R); read-out: Ki (nM) hCB1R): > 10000 nM
Ki (human CB2R (hCB2R); [3]): 438 nM

CCCCCCC(C)(C)c1cc(O)c(C2(O)C3(C)CCC(C3)C2(C)C)c(OC)c1 (stereo not shown) [Compound 5c, 2-(2′-Hydroxy-6′-methoxy-4′-(2″-methyloctan-2″-yl)phenyl)-1,3,3-trimethylbicyclo-[2.2.1]heptan-2-ol]
Ki (human CB1R (hCB1R); read-out: Ki (nM) hCB1R): > 10000 nM
Ki (human CB2R (hCB2R); [3]): 107 nM

CCCCCc1cc(O)c(C2(O)C3(C)CCC(C3)C2(C)C)c(OC)c1 (stereo not shown) [Compound 5a, 2-(2′-hydroxy-6′-methoxy-4′-pentylphenyl)-1,3,3-trimethylbicyclo[2.2.1]heptan-2-ol]
Ki (human CB1R (hCB1R); read-out: Ki (nM) hCB1R): > 10000 nM
Ki (human CB2R (hCB2R); [3]): 4980 nM

CCC(C)(C)c1ccc(OC)c(C2(O)C3(C)CCC(C3)C2(C)C)c1 (stereo not shown) [Compound 3e, 2-(2′-Methoxy-5′-(tert-pentyl)phenyl)-1,3,3-trimethylbicyclo[2.2.1] heptan-2-ol]
Ki (human CB1R (hCB1R); read-out: Ki (nM) hCB1R): > 10000 nM
Ki (human CB2R (hCB2R); [3]): 2870 nM

CCCCCCC(C)(C)c1cc(OC)c(C2(O)C3(C)CCC(C3)C2(C)C)c(OC)c1 (stereo not shown) [Compound 1d, 2-(2′,6′-Dimethoxy-4′-(2″-methyloctan-2″-yl)phenyl)-1,3,3-trimethylbicyclo[2.2.1]heptan-2-ol]
Ki (human CB2R (hCB2R); Ki (nM) hCB2R): 3.51 nM
EC50 (hCB2R): 2.59 nM
E(max)% (hCB2R; [4]): 89.6%
reduction in swelling ([1]; 15 mg/kg ip): 30%
reduction in swelling ([1]; 25 mg/kg ip): 54%
anti-nociceptive effect (paw withdrawal threshold, von Frey) [2]: strong anti-nociceptive effects
inhibition of TNF-α serum levels (TNF-α; 15 mg/kg ip): 26%
inhibition of TNF-α serum levels (TNF-α; 25 mg/kg ip): 40%

CCCCCCC(C)(C)c1cc(OC)c(C2(O)C3(C)CCC(C3)C2(C)C)c(OC)c1F (stereo not shown) [Compound 4d, 2-(3′-fluoro-2′,6′-dimethoxy-4′-(2″-methyloctan-2″-yl)phenyl)-1,3,3-trimethylbicyclo[2.2.1]heptan-2-ol]
Ki (human CB2R (hCB2R); [3]): 56.6 nM
functional activity at hCB2R (agonist / antagonist / inverse agonist) (hCB2R): agonist
EC50 (hCB2R): 104 nM
E(max)% (hCB2R; [4]): 119%

CCCCCc1ccc(OC)c(C2(O)C3(C)CCC(C3)C2(C)C)c1 (stereo not shown) [Compound 3d, 2-(2′-Methoxy-5′-pentylphenyl)-1,3,3-trimethylbicyclo[2.2.1]heptan-2-ol]
Ki (human CB2R (hCB2R); [3]): 834 nM
